Laboratory results taken from ChEMBL document CHEMBL1201862, “PubChem BioAssay data set” (2004).
Calls of active or inactive are those of the source.

Assays:
[1] = biological target: Sphingosine 1-phosphate receptor 5 (Homo sapiens, UniProt Q9H228); assay: Late stage counterscreen assay for S1P4 antagonists: Fluorescence dose response cell-based screening assay for antagonists of the Sphingosine 1-Phosphate Receptor 5 (S1P5). [Related pubchem assays (depositor defined):AID1510, AID1524, AID1692, AID1853, AID2332, AID489009, AID489017]; format: functional
[2] = biological target: Sphingosine 1-phosphate receptor 3 (Homo sapiens, UniProt Q99500); assay: Late stage counterscreen assay for S1P4 antagonists: Fluorescence dose response cell-based screening assay for antagonists of the Sphingosine 1-Phosphate Receptor 3 (S1P3). [Related pubchem assays (depositor defined):AID1510, AID1524, AID1692, AID1853, AID2332, AID489009, AID489017]; format: functional
[3] = biological target: Sphingosine 1-phosphate receptor 1 (Homo sapiens, UniProt P21453); assay: Late stage counterscreen assay for S1P4 antagonists: Fluorescence dose response cell-based screening assay for antagonists of the Sphingosine 1-Phosphate Receptor 1 (S1P1). [Related pubchem assays (depositor defined):AID1510, AID1524, AID1692, AID1853, AID2332, AID489009, AID489017]; format: functional
[4] = biological target: T1, Sphingosine 1-phosphate receptor 4 (Homo sapiens, UniProt O95977); assay: S1P4 receptor antagonists, human, late-stage follow-up, cell-based, fluorescence, synthesized analogues (AID 2346); format: functional
T1 sequence (O95977 whole entry): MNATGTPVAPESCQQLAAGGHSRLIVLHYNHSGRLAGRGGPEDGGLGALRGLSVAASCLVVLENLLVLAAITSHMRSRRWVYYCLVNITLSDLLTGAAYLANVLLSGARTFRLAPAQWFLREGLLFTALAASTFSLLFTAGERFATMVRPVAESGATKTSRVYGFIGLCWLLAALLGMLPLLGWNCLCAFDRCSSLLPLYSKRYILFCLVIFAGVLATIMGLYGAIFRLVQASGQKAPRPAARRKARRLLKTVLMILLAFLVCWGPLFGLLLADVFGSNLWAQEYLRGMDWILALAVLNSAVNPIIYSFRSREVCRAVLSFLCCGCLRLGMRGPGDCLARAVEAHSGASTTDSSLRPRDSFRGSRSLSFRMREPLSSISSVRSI

[5] = biological target: Sphingosine 1-phosphate receptor 2 (Homo sapiens, UniProt O95136); assay: Late stage counterscreen assay for S1P4 antagonists: Fluorescence dose response cell-based screening assay for antagonists of the Sphingosine 1-Phosphate Receptor 2 (S1P2). [Related pubchem assays (depositor defined):AID1510, AID1524, AID1692, AID1853, AID2332, AID489009, AID489017]; format: functional
[6] = biological target: SUMO E1/E2 (Homo sapiens, UniProt P63279+Q9UBE0+Q9UBT2); assay: SAR analysis of SUMOylation using HTRF in an in-Vitro dose response assay. [Related pubchem assays (depositor defined):AID2006, AID2011, AID2018, AID2069, AID2658]; format: functional
[7] = biological target: T2, Voltage-gated N-type calcium channel alpha-1B subunit/Amyloid beta A4 precursor protein-binding family A member 1 (Homo sapiens, UniProt Q00975+Q02410); assay: disruptors of Mint-PDZ/N-type channel peptide interaction – biochemical, HTRF, set 2, SAR follow-up (AID 434980); format: functional
[8] = biological target: T2, Voltage-gated N-type calcium channel alpha-1B subunit/Amyloid beta A4 precursor protein-binding family A member 1; assay: disruptors of Mint-PDZ/N-type channel peptide interaction – biochemical, HTRF, SAR follow-up (AID 2489); format: functional
[9] = test system: BJ; assay: cytotoxicity toward BJ-TERT fibroblasts, dose response, cell-based, RAS-independent, luminescence (AID 1933); format: functional; details: Homo sapiens
[10] = test system: BJ; assay: cells; format: functional, cell-based; details: Homo sapiens
[11] = microbe, parasite or virus in culture; format: functional; details: Mycobacterium tuberculosis
[12] = test system: BJ; assay: cytotoxicity toward BJ-TERT-LT-ST fibroblasts, dose response, cell-based, RAS-independent, luminescence (AID 1935); format: functional; details: Homo sapiens;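 further: BJ fibroblasts immortalized with TERT plus LT and ST oncogenes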
[13] = cytotoxicity toward DRD oncogenic fibroblasts, dose response, cell-based, non-viral oncogenic, luminescence (AID 1934); format: functional; details: Homo sapiens
[14] = THP-1 cell cytotoxicity, dose response, cytotoxicity control for non-replicating M. tuberculosis project (AID 489025); format: functional
[15] = Vero E6 cell cytotoxicity, dose response, cytotoxicity control for non-replicating M. tuberculosis project, secondary assay (AID 492998); format: functional, VeroE6; details: Vero C1008
[16] = biological target: Nonstructural protein 1 (Influenza A virus, UniProt Q194T2); format: functional, Influenza A virus (A/California/07/2009(H1N1))
[17] = biological target: Lysine-specific demethylase 4A (Homo sapiens, UniProt O75164); assay: JMJD2A histone demethylase inhibitors, dose response, selectivity assay for GASC-1 inhibitor project, biochemical, DELFIA europium, cherry-picked samples (AID 488840)
[18] = biological target: Lysine-specific demethylase 4C (Homo sapiens, UniProt Q9H3R0); assay: GASC-1 (JMJD2C) histone demethylase inhibitors, dose response, biochemical, DELFIA europium, cherry-picked samples (AID 488835); format: functional
[19] = cells; format: functional
[20] = test system: INS1; assay: beta cell apoptosis inhibitors, cytokine rescue, dose response, luminescence, retest (AID 449756); format: functional, cell-based; details: Rattus norvegicus;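 further: cell death triggered by IL-1 beta plus TNF-alpha plus IFN-gamma mixture; protective hits raise ATP signal compared with cytokine alone wells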

T2 sequence (Q00975 whole entry): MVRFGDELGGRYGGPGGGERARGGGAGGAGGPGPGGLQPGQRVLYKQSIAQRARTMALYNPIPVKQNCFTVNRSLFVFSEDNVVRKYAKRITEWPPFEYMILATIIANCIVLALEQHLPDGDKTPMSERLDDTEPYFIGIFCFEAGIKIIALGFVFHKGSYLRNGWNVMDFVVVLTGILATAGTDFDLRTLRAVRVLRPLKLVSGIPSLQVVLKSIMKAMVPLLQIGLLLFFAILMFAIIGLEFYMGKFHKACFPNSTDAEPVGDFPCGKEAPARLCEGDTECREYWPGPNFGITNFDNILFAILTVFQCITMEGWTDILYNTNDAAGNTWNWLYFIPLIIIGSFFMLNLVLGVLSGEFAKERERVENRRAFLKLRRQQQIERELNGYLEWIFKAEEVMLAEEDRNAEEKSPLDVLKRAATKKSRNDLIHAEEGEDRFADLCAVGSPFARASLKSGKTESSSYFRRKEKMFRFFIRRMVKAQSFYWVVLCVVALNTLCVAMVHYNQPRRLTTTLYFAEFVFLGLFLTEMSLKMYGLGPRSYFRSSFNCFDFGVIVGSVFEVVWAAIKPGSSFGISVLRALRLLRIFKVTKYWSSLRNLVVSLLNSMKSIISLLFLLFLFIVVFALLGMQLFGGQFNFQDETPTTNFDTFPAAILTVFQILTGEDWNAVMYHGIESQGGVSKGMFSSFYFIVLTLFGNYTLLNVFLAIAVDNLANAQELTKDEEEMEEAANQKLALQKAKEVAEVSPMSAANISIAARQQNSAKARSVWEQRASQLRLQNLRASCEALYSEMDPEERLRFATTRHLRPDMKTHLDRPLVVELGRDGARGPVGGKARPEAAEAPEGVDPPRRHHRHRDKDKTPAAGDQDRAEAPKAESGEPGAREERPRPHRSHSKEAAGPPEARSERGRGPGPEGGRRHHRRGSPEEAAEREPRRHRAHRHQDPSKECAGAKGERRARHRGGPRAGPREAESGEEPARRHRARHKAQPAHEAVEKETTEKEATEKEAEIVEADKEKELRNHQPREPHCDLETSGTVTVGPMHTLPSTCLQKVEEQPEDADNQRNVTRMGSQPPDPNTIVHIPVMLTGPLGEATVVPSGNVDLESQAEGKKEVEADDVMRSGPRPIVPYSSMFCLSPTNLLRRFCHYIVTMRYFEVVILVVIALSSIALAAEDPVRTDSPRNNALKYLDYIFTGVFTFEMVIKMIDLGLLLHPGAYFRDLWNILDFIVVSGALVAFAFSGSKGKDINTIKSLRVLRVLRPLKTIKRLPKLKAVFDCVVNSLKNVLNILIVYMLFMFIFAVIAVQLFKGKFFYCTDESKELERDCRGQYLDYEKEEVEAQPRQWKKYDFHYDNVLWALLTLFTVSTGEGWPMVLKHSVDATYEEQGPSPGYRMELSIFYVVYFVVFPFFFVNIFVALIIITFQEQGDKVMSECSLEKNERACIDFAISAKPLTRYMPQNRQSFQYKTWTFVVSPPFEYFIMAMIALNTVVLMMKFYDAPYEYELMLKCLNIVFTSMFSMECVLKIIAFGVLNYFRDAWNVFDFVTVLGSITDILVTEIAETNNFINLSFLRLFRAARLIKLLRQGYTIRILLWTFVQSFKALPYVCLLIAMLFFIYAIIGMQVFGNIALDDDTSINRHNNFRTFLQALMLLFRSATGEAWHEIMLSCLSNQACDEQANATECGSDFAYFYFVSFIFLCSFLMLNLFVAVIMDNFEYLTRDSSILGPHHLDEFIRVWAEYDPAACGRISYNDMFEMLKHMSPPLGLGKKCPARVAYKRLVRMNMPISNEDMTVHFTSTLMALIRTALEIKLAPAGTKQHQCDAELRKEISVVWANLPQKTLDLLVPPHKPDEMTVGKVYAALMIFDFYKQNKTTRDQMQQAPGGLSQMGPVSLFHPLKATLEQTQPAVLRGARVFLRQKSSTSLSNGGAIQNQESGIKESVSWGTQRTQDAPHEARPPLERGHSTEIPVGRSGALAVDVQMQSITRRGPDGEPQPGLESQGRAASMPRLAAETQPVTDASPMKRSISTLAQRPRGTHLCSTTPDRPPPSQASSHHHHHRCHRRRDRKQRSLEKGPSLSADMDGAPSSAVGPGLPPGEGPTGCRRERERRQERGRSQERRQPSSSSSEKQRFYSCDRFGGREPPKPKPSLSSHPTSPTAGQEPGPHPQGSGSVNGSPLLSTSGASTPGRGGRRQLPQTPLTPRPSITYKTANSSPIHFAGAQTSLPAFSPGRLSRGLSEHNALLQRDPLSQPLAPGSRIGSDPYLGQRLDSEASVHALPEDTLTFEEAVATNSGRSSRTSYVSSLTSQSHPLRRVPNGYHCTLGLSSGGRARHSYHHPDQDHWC
T2 sequence (Q02410 whole entry): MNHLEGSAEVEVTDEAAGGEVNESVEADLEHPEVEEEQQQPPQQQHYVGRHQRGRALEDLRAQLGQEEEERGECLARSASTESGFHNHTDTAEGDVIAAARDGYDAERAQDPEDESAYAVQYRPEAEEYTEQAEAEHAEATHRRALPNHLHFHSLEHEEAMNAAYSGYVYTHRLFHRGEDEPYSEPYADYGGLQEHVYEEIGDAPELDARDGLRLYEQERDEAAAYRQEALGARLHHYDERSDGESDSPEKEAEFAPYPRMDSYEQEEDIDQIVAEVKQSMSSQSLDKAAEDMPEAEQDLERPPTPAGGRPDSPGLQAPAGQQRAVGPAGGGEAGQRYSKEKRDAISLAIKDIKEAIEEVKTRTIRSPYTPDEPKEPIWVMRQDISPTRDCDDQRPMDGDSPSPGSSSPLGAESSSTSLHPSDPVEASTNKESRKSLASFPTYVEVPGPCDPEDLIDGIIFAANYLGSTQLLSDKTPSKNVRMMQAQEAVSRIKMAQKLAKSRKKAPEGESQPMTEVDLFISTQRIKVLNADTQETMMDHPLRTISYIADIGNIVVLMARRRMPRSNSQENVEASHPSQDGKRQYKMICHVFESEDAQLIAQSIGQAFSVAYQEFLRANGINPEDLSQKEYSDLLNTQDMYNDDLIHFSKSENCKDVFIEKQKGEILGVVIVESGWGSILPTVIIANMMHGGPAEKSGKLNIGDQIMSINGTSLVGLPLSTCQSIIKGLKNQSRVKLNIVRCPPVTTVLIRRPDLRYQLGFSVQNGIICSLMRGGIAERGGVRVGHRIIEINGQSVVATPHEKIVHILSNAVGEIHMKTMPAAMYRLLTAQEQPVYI
Chain of Lysine-specific demethylase 4C (Q9H3R0 whole entry): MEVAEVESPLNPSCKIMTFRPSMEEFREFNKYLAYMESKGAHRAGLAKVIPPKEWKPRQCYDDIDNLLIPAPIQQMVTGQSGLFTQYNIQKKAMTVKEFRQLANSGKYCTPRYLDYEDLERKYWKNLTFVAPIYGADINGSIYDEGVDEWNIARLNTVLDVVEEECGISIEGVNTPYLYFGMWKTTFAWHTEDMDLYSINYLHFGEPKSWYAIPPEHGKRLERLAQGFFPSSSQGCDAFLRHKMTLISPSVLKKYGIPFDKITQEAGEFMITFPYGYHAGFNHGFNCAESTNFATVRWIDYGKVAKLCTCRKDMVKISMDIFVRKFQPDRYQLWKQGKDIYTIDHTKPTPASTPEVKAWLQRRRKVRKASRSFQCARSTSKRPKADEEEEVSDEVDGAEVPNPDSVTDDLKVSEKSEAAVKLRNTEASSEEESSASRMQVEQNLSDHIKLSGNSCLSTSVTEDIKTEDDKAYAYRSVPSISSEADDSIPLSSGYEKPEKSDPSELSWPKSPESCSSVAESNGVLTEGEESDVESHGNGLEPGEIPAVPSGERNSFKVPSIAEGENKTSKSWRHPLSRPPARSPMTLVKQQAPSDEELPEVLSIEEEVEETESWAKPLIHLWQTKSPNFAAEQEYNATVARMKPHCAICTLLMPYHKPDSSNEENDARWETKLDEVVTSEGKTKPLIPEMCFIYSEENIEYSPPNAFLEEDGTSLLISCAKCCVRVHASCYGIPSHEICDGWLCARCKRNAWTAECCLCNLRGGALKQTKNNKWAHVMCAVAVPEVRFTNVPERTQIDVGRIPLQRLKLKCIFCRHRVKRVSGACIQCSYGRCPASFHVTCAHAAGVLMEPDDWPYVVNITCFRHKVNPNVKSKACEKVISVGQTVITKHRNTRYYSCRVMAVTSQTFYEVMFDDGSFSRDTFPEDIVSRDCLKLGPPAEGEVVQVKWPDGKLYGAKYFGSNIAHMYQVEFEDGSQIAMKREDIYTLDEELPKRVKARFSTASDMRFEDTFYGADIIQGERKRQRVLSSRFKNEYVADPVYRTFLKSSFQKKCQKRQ
Chain of Sphingosine 1-phosphate receptor 2 (O95136 whole entry): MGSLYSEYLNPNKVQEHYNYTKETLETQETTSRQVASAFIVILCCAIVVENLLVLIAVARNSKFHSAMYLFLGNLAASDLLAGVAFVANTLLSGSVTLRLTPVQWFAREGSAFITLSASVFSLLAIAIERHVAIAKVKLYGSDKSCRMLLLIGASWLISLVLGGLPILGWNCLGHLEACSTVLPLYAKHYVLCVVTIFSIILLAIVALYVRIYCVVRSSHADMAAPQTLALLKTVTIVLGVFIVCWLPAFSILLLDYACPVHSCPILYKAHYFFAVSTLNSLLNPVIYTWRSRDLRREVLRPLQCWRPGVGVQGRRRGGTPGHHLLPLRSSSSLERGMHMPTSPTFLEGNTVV
Chain of Sphingosine 1-phosphate receptor 3 (Q99500 whole entry): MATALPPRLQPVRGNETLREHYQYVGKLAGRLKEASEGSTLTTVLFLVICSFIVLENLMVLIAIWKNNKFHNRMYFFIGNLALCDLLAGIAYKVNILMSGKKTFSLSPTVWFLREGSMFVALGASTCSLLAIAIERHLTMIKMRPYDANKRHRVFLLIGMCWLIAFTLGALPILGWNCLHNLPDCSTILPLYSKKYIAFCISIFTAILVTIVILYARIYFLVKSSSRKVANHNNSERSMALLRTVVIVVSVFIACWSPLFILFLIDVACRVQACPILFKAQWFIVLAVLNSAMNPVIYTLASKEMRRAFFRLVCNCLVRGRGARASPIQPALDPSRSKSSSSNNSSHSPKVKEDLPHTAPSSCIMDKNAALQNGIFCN

CCc1cccc(C)c1NC(=O)c1ccc(-c2ccccc2Cl)o1
inactive: IC50 [1] > 25 µM | IC50 [2] > 25 µM | IC50 [3] > 25 µM | IC50 [5] > 25 µM
active: IC50 [4] 0.269 µM

CN(Cc1ccc(F)cc1)C(=O)COC(=O)c1cc(-c2ccco2)nc2ccccc12
active: IC50 [6] 2.41 µM | IC50 [7] 11.5 µM | IC50 [8] 19.1 µM

N#C/C(N=Nc1ccccc1O)=N\Nc1ccccc1O
active: EC50 [9] 5.98 µM | EC50 [10] 7.91 µM | CC50 [11] 4.13 µM | EC50 [12] 6.76 µM | EC50 [13] 8.75 µM | CC50 [14] 3.15 µM | CC50 [15] 7.05 µM | IC50 [16] 10.9 µM | AC50 [17] 3.37 µM | AC50 [18] 0.388 µM | IC50 [19] 1.29 µM | AC50 [20] 2.3 µM
